Assay [1] deals with human PPARγ. The assay can be described thus: Reporter gene bioassay of PPAR transcriptional activity (Gal4-hPPARγ / UAStkLuc luciferase in 293 cells). The note with it: each compound alone, 16 h, FIGS. 1A and B. The assay is classed as cell-based. The method, then: FIG. 1A, 1B illustrate a transcriptional activation of PPARγ by BNZ and PAA. Luciferase assay was performed in 293 cells transfected with Gal4-hPPARγ and UAStkLuc reporter construct and treated for 16 h with respective compounds. Data are expressed as fold change ±SEM compared to untreated cells set at 1.0.*, P<0.05; **, P<0.001.
FIG. 1C illustrates the additive effect of SB and PAA on transcriptional activity of PPARγ. Luciferase assay was performed in 293 cells transfected with Gal4-hPPARγ and UAStkLuc reporter construct and treated 10 mM of each compound for 16 h. Data are expressed as fold change ±SEM compared to untreated cells set at 1.0.*, P<0.001.
Human embryonic kidney 293 cells were seeded in DMEM supplemented with 5% charcoal dextran-treated FBS and transfected with Gal4 DBD fusion of PPAR isoforms and UAStkLuc reporter as described (12). Cells were then treated for 16 hrs and harvested for luciferase activity. Luciferase values were normalized for transfection efficiency to β-galactosidase activity and expressed as relative fold response compared to untreated cells. Data are derived from at least four independent experiments performed in triplicates. […]
Background: In a reporter assay the amount or activity of a reporter protein is the signal.

Assay [2] concerns CD4+ T cells. The assay can be described thus: Treatment of CD4+ T cells from healthy volunteers and Systemic Lupus Erythematosus patients. The note with it: preliminary data, FIG. 6; CD4+ T cells stimulated with α-CD3/CD28 beads. In kind it is cell-based, human. From the text: FIG. 6 illustrates BZN+PAA (HIP-002) treatment of T cells derived from healthy volunteer (HV) and Systemic Lupus Erythematous (SLE) patients.
Next, we examined if BZN+PAA can improve immune function of T lymphocytes in Systemic Lupus Erythematosus (SLE). […] Dilutions effects of the BZN+PAA drug (HIP-002) are shown. (FIG. 6A). CD4+ T cells were stimulated with α-CD3/CD28 beads for 4 (red) or 5 (black) days and cytotoxicity determined by Live/Dead staining. (FIG. 6B) CD4+ T cells were stimulated as in (FIG. 6A) for 5 days, and the surface expression of CD154 and CD25 measured by FACS analysis. (FIG. 6C) CD4+ T cells were stimulated as in (FIG. 6A), and proliferation measured by dilution of the CellTrace Violet dye. White bars: HV; n=2-3. Gray bars: SLE patients; n=3-4. * p<0.05, ** p<0.01, *** p<0.0001.

As to `O=C([O-])c1ccccc1.[Na+]` [BNZ, benzoate], the “PPARγ activity (transcriptional activation, luciferase)” value in assay [1] is “significantly potent in increasing PPARγ activity”. In addition, in assay [2], the “effect on growth and survival of T lymphocytes” value is “beneficial effect on the growth and survival of these cells”.

Values taken from patent US20190000790A1, “PPAR-GAMMA ACTIVATORS AND THEIR THE[…]” (THERIAC B[…]., priority 2015, published 2019).
